Test results from BigSolDB 2.1.

For `C=CC(=O)NC(C)(C)CS(=O)(=O)O`, the solubility (mole fraction) (in 1,4-dioxane, 288.15 K) was 0.000105, the solubility (mole fraction) (in 1,4-dioxane, 293.15 K) was 0.000168 and the solubility (mole fraction) (in 1,4-dioxane, 298.15 K) was 0.000274. It also gave a solubility (mole fraction) (in 1,4-dioxane, 303.15 K) of 0.000425, a solubility (mole fraction) (in 1,4-dioxane, 308.15 K) of 0.000657 and a solubility (mole fraction) (in 1,4-dioxane, 313.15 K) of 0.000978. It also gave a solubility (mole fraction) (in 1,4-dioxane, 318.15 K) of 0.00139, a solubility (mole fraction) (in 1,4-dioxane, 323.15 K) of 0.00195 and a solubility (mole fraction) (in 1,4-dioxane, 328.15 K) of 0.00268. The solubility (mole fraction) (in acetone, 283.15 K) was 0.00625, the solubility (mole fraction) (in acetone, 288.15 K) was 0.00695 and the solubility (mole fraction) (in acetone, 293.15 K) was 0.00795. It also gave a solubility (mole fraction) (in acetone, 298.15 K) of 0.00921, a solubility (mole fraction) (in acetone, 303.15 K) of 0.0107 and a solubility (mole fraction) (in acetone, 308.15 K) of 0.0126. For the same molecule, the solubility (mole fraction) (in acetone, 313.15 K) was 0.0148, the solubility (mole fraction) (in acetone, 318.15 K) was 0.0173 and the solubility (mole fraction) (in acetone, 323.15 K) was 0.0205. It also gave a solubility (mole fraction) (in acetone, 328.15 K) of 0.0244, a solubility (mole fraction) (in acetonitrile, 283.15 K) of 3.11e-05 and a solubility (mole fraction) (in acetonitrile, 288.15 K) of 5.19e-05. It also gave a solubility (mole fraction) (in acetonitrile, 293.15 K) of 9.14e-05, a solubility (mole fraction) (in acetonitrile, 298.15 K) of 0.000154 and a solubility (mole fraction) (in acetonitrile, 303.15 K) of 0.000265. The solubility (mole fraction) (in acetonitrile, 308.15 K) was 0.000436, the solubility (mole fraction) (in acetonitrile, 313.15 K) was 0.000696 and the solubility (mole fraction) (in acetonitrile, 318.15 K) was 0.00107. The solubility (mole fraction) (in acetonitrile, 323.15 K) was 0.0016, the solubility (mole fraction) (in acetonitrile, 328.15 K) was 0.00237 and the solubility (mole fraction) (in cyclohexane, 283.15 K) was 2.64e-05. It also gave a solubility (mole fraction) (in cyclohexane, 288.15 K) of 4.73e-05, a solubility (mole fraction) (in cyclohexane, 293.15 K) of 7.77e-05 and a solubility (mole fraction) (in cyclohexane, 298.15 K) of 0.000139. The solubility (mole fraction) (in cyclohexane, 303.15 K) was 0.000229, the solubility (mole fraction) (in cyclohexane, 308.15 K) was 0.000359 and the solubility (mole fraction) (in cyclohexane, 313.15 K) was 0.000567. The solubility (mole fraction) (in cyclohexane, 318.15 K) was 0.000867, the solubility (mole fraction) (in cyclohexane, 323.15 K) was 0.00125 and the solubility (mole fraction) (in cyclohexane, 328.15 K) was 0.00179. The solubility (mole fraction) (in ethanol, 283.15 K) was 0.00721, the solubility (mole fraction) (in ethanol, 288.15 K) was 0.00794 and the solubility (mole fraction) (in ethanol, 293.15 K) was 0.00893. For the same molecule, the solubility (mole fraction) (in ethanol, 298.15 K) was 0.0102, the solubility (mole fraction) (in ethanol, 303.15 K) was 0.0118 and the solubility (mole fraction) (in ethanol, 308.15 K) was 0.0138. For the same molecule, the solubility (mole fraction) (in ethanol, 313.15 K) was 0.0161, the solubility (mole fraction) (in ethanol, 318.15 K) was 0.0189 and the solubility (mole fraction) (in ethanol, 323.15 K) was 0.0225. It also gave a solubility (mole fraction) (in ethanol, 328.15 K) of 0.0264, a solubility (mole fraction) (in ethyl acetate, 283.15 K) of 0.00106 and a solubility (mole fraction) (in ethyl acetate, 288.15 K) of 0.00142. For the same molecule, the solubility (mole fraction) (in ethyl acetate, 293.15 K) was 0.00198, the solubility (mole fraction) (in ethyl acetate, 298.15 K) was 0.00262 and the solubility (mole fraction) (in ethyl acetate, 303.15 K) was 0.00338. It also gave a solubility (mole fraction) (in ethyl acetate, 308.15 K) of 0.00431, a solubility (mole fraction) (in ethyl acetate, 313.15 K) of 0.00543 and a solubility (mole fraction) (in ethyl acetate, 318.15 K) of 0.00672. For the same molecule, the solubility (mole fraction) (in ethyl acetate, 323.15 K) was 0.00829, the solubility (mole fraction) (in ethyl acetate, 328.15 K) was 0.0103 and the solubility (mole fraction) (in ethylene glycol, 283.15 K) was 0.000463. The solubility (mole fraction) (in ethylene glycol, 288.15 K) was 0.000687, the solubility (mole fraction) (in ethylene glycol, 293.15 K) was 0.00105 and the solubility (mole fraction) (in ethylene glycol, 298.15 K) was 0.00162. The solubility (mole fraction) (in ethylene glycol, 303.15 K) was 0.00237, the solubility (mole fraction) (in ethylene glycol, 308.15 K) was 0.00329 and the solubility (mole fraction) (in ethylene glycol, 313.15 K) was 0.00444. It also gave a solubility (mole fraction) (in ethylene glycol, 318.15 K) of 0.00583, a solubility (mole fraction) (in ethylene glycol, 323.15 K) of 0.00757 and a solubility (mole fraction) (in ethylene glycol, 328.15 K) of 0.00972. The solubility (mole fraction) (in isobutanol, 283.15 K) was 0.00229, the solubility (mole fraction) (in isobutanol, 288.15 K) was 0.00267 and the solubility (mole fraction) (in isobutanol, 293.15 K) was 0.00322. The solubility (mole fraction) (in isobutanol, 298.15 K) was 0.00394, the solubility (mole fraction) (in isobutanol, 303.15 K) was 0.00485 and the solubility (mole fraction) (in isobutanol, 308.15 K) was 0.00596. The solubility (mole fraction) (in isobutanol, 313.15 K) was 0.00728, the solubility (mole fraction) (in isobutanol, 318.15 K) was 0.00885 and the solubility (mole fraction) (in isobutanol, 323.15 K) was 0.0107. It also gave a solubility (mole fraction) (in isobutanol, 328.15 K) of 0.0131, a solubility (mole fraction) (in isopropanol, 283.15 K) of 0.000208 and a solubility (mole fraction) (in isopropanol, 288.15 K) of 0.000333. For the same molecule, the solubility (mole fraction) (in isopropanol, 293.15 K) was 0.00056, the solubility (mole fraction) (in isopropanol, 298.15 K) was 0.000882 and the solubility (mole fraction) (in isopropanol, 303.15 K) was 0.00129. It also gave a solubility (mole fraction) (in isopropanol, 308.15 K) of 0.00186, a solubility (mole fraction) (in isopropanol, 313.15 K) of 0.00266 and a solubility (mole fraction) (in isopropanol, 318.15 K) of 0.00373. The solubility (mole fraction) (in isopropanol, 323.15 K) was 0.00508, the solubility (mole fraction) (in isopropanol, 328.15 K) was 0.00671 and the solubility (mole fraction) (in methanol, 283.15 K) was 0.00916. For the same molecule, the solubility (mole fraction) (in methanol, 288.15 K) was 0.0103, the solubility (mole fraction) (in methanol, 293.15 K) was 0.0117 and the solubility (mole fraction) (in methanol, 298.15 K) was 0.0138. The solubility (mole fraction) (in methanol, 303.15 K) was 0.0163, the solubility (mole fraction) (in methanol, 308.15 K) was 0.0193 and the solubility (mole fraction) (in methanol, 313.15 K) was 0.0227. For the same molecule, the solubility (mole fraction) (in methanol, 318.15 K) was 0.0268, the solubility (mole fraction) (in methanol, 323.15 K) was 0.0322 and the solubility (mole fraction) (in methanol, 328.15 K) was 0.0383. For the same molecule, the solubility (mole fraction) (in n-butanol, 283.15 K) was 0.00359, the solubility (mole fraction) (in n-butanol, 288.15 K) was 0.00403 and the solubility (mole fraction) (in n-butanol, 293.15 K) was 0.00468. For the same molecule, the solubility (mole fraction) (in n-butanol, 298.15 K) was 0.0055, the solubility (mole fraction) (in n-butanol, 303.15 K) was 0.00649 and the solubility (mole fraction) (in n-butanol, 308.15 K) was 0.00773. For the same molecule, the solubility (mole fraction) (in n-butanol, 313.15 K) was 0.00922, the solubility (mole fraction) (in n-butanol, 318.15 K) was 0.011 and the solubility (mole fraction) (in n-butanol, 323.15 K) was 0.0133. The solubility (mole fraction) (in n-butanol, 328.15 K) was 0.0159, the solubility (mole fraction) (in n-heptanol, 283.15 K) was 0.00327 and the solubility (mole fraction) (in n-heptanol, 288.15 K) was 0.00369. The solubility (mole fraction) (in n-heptanol, 293.15 K) was 0.00426, the solubility (mole fraction) (in n-heptanol, 298.15 K) was 0.00496 and the solubility (mole fraction) (in n-heptanol, 303.15 K) was 0.00582. For the same molecule, the solubility (mole fraction) (in n-heptanol, 308.15 K) was 0.0069, the solubility (mole fraction) (in n-heptanol, 313.15 K) was 0.00824 and the solubility (mole fraction) (in n-heptanol, 318.15 K) was 0.00987. The solubility (mole fraction) (in n-heptanol, 323.15 K) was 0.0118, the solubility (mole fraction) (in n-heptanol, 328.15 K) was 0.0145 and the solubility (mole fraction) (in n-propanol, 283.15 K) was 0.00399. For the same molecule, the solubility (mole fraction) (in n-propanol, 288.15 K) was 0.00463, the solubility (mole fraction) (in n-propanol, 293.15 K) was 0.00542 and the solubility (mole fraction) (in n-propanol, 298.15 K) was 0.00646. For the same molecule, the solubility (mole fraction) (in n-propanol, 303.15 K) was 0.00764, the solubility (mole fraction) (in n-propanol, 308.15 K) was 0.0091 and the solubility (mole fraction) (in n-propanol, 313.15 K) was 0.0108. The solubility (mole fraction) (in n-propanol, 318.15 K) was 0.0129, the solubility (mole fraction) (in n-propanol, 325.15 K) was 0.0158 and the solubility (mole fraction) (in n-propanol, 328.15 K) was 0.0188.
